Values joined by “and” are separate entries in the source; they are usually repeats but may differ in a detail not shown here. Equal entries are not always repeated.
System: patients suffering from Alzheimer's disease
Assay: Clinical trial of dimebon tablets, inventors' scale (E. E. Bukatina et al.; 0 = absence of a symptom, 4 = greatest manifestation)
Assay type: in vivo, human
Conditions: for mean value of delirium manifestations: 10 patients with delirious symptoms prior to treatment; for mean value of depressive manifestations: 12 patients with depressive manifestations; for Item 1 (orientation in locality, time, immediate surroundings and one's own personality): mean value / Item 2 (orientation in space): mean value / Item 3 (memory for the past): mean value / Item 4 (memory for the present): mean value / Item 5 (life in the past): mean value / Item 6a (speech): mean value / Item 6b (difficulty in finding words, and distortion of words): mean value / Item 6g (speech): mean value / Item 7 (concentration of attention): mean value / Item 8b (low spirits): mean value / Item 9 (delirium): mean value / Item 13 (irritability): mean value / Item 14 (anxiety): mean value / Item 15 (asthenia): mean value / Item 16 (headaches): mean value / Item 17 (dizziness): mean value / Item 18 (tearfulness): mean value / Item 19 (spontaneous activity): mean value / Item 20 (elementary self-service): mean value: mean of 14 patients
Procedure: The test was carried out under the direct supervision by two of the inventors, namely E. E. Bukatina and V. Grigorieva, in 14 patients who agreed to take part in the tests, 13 of whom lived in a boarding house for senile persons and one patient lived with their family.
Alzheimer's disease was diagnosed on the basis of criteria ICD-10 NINCDS ADRDA.
Dimebon in the form of tablets (comprising 10 mg of dimebon, 30 mg of lactose, 5 mg of magnesium stearate was prescribed for oral administration in a dose of 0.02 g three to times a day. The patients living in the boarding house received dimebon for 58 days. A patient (observation 14) who was under outpatient observation continued taking the agent for a month after the completion of the tests.
Before the treatment with dimebon, and at 4 and 8 weeks after treatment the patients were examined according to Hazegawa's scale and the inventors' scale (“Social and Clinical Psychiatry”, 1992, No.4, pp.29–37) which includes the following indexes: (1) orientation in locality, time, immediate surroundings and one's own personality; (2) orientation in space; (3) memory for the past; (4) memory for the present; (5) “life in the past”; (6) (a) articulation, (b) difficulty in finding words, and distortion of words; (c) naming of objects; (d) following instructions; (7) concentration (of attention); (8) an affective sphere; (a) high spirits, (b) low spirits; (9) delirium; (10) hearing hallucinations; (11) visual hallucinations; (12) senile or senile-like confusion (when motion anxiety is accompanied by the revival of the past experience); (13) irritability; (14) anxiety; (15) asthenia; (16) headaches; (17) dizziness; (18) tearfulness; (19) spontaneous activity; (20) elementary self-service; and (21 control of sphincters.
According to the Hazegawa's scale, the 0 score indicates the poorest result; on the contrary, according to the inventors' scale, the 0 score indicates the absence of a symptom 4 score indicates the greatest manifestation thereof. […] Before the therapy was started, the patients had been independently examined by two doctors who used the inventors' scale. The examination during the treatment was carried out by the doctors using both the scales. The evaluation according to all the inventors' scale points during all the tests and their variations during the treatment with dimebon are given in the Appendix.
According to the inventors' scale, the degree of the disturbance if the cognitive functions was determined by a sum of evaluations according to the first 5 scale points reflecting the condition of memory, orientation and relation with the reality. The disturbance of speech was dealt with separately and was determined by a sum of evaluations according to items 6b-6d.
Both absolute evaluations of the signs under investigation (the evaluation prior to treatment is a mean evaluation of the two examinations) and variations in them were analysed in the course of therapy. In doing so, only those changes that were beyond the range of evaluations obtained in two pre-treatment examinations were taken into consideration.
The test results reflected the condition of the patients at the time of the examination. Any changes in the metal state observed in the interval between the tests and disappearing by the moment of examination according to the scale were described in the section “Clinical Observations”.
The statistical data processing was carried out by means of Student's t-test and Fisher's “Fi” criterion.

[1] = after 4 weeks vs two examinations prior to treatment, + improvement, − deterioration
[2] = after 8 weeks vs two examinations prior to treatment, + improvement, − deterioration
[3] = change at 4 weeks vs K1, K2, per patient, listed as dimebon

Cc1ccc2c(c1)c1c(n2CCc2ccc(C)nc2)CCN(C)C1 [No. 10, 2,8-dimethyl-5-[2-(6-methyl-3-pyridyl)ethyl]-2,3,4,5-tetrahydro-1H-pyrido[4,3-b]indole]
Cognitive functions (first 5 scale points): no variations, % (4 weeks): 81.4%
Cognitive functions (first 5 scale points): no variations, abs. (4 weeks): 57
Cognitive functions: X (no variations in the function prior to and during the treatment), % (4 weeks): 7.1%
Cognitive functions: X (no variations in the function prior to and during the treatment), abs. (4 weeks): 5
Speech functions (items 6b, c, d): no variations, % (4 weeks): 54.8%
Speech functions (items 6b, c, d): no variations, abs. (4 weeks): 23
Speech functions: X (no variations in the function prior to and during the treatment), % (4 weeks): 33.3%
Speech functions: X (no variations in the function prior to and during the treatment), abs. (4 weeks): 14
Cognitive functions (first 5 scale points): no variations, % (8 weeks): 53.6%
Cognitive functions (first 5 scale points): no variations, abs. (8 weeks): 41
Cognitive functions: X (no variations in the function prior to and during the treatment), % (8 weeks): 7.1%
Cognitive functions: X (no variations in the function prior to and during the treatment), abs. (8 weeks): 5
Speech functions (items 6b, c, d): no variations, % (8 weeks): 45.2%
Speech functions (items 6b, c, d): no variations, abs. (8 weeks): 19
Speech functions: X (no variations in the function prior to and during the treatment), % (8 weeks): 30.95%
Speech functions: X (no variations in the function prior to and during the treatment), abs. (8 weeks): 13
mean value of delirium manifestations (4 weeks): 0.8±0.33
mean value of delirium manifestations (8 weeks): 0.7±0.27
mean value of depressive manifestations (after 4 weeks): 0.58±0.18 score
mean value of depressive manifestations (after 8 weeks): 0.58±0.14 score
cognitive functions (Hazegawa's scale and inventor's scale), conclusion (14 patients, especially patients with mild dementia): significant improvement in cognitive functions
mean score of tearfulness (after 4 weeks): 0.2±0.18
Item 1 (orientation in locality, time, immediate surroundings and one's own personality): change during the course of the therapy [1]: +0.11 +/− 0.07 scores
Item 2 (orientation in space): change during the course of the therapy [1]: +0.11 +/− 0.07 scores
Item 3 (memory for the past): change during the course of the therapy [1]: +0.07 +/− 0.07 scores
Item 4 (memory for the present): change during the course of the therapy [1]: 0 +/− 0 scores
Item 5 (life in the past): change during the course of the therapy [1]: +0.14 +/− 0.08 scores
Item 6a (speech): change during the course of the therapy [1]: +0.11 +/− 0.07 scores
Item 6b (difficulty in finding words, and distortion of words): change during the course of the therapy [1]: 0 +/− 0 scores
Item 6g (speech): change during the course of the therapy [1]: −0.07 +/− 0.12 scores
Item 7 (concentration of attention): change during the course of the therapy [1]: 0 +/− 0.5 scores
Item 8b (low spirits): change during the course of the therapy [1]: +0.41 +/− 0.17 scores
Item 9 (delirium): change during the course of the therapy [1]: +0.07 +/− 0.09 scores
Item 13 (irritability): change during the course of the therapy [1]: +0.29 +/− 0.13 scores
Item 14 (anxiety): change during the course of the therapy [1]: −0.04 +/− 0.13 scores
Item 15 (asthenia): change during the course of the therapy [1]: −0.11 +/− 0.09 scores
Item 16 (headaches): change during the course of the therapy [1]: +0.54 +/− 0.21 scores
Item 17 (dizziness): change during the course of the therapy [1]: −0.14 +/− 0.17 scores
Item 18 (tearfulness): change during the course of the therapy [1]: −0.14 +/− 0.14 scores
Item 19 (spontaneous activity): change during the course of the therapy [1]: 0 +/− 0 scores
Item 20 (elementary self-service): change during the course of the therapy [1]: +0.07 +/− 0.07 scores
Item 1 (orientation in locality, time, immediate surroundings and one's own personality): mean value (after 4 weeks): 1.75 +/− 0.23 scores
Item 2 (orientation in space): mean value (after 4 weeks): 0.32 +/− 0.15 scores
Item 3 (memory for the past): mean value (after 4 weeks): 2.29 +/− 0.21 scores
Item 4 (memory for the present): mean value (after 4 weeks): 2.21 +/− 0.22 scores
Item 5 (life in the past): mean value (after 4 weeks): 1.75 +/− 0.27 scores
Item 6a (speech): mean value (after 4 weeks): 0.71 +/− 0.21 scores
Item 6b (difficulty in finding words, and distortion of words): mean value (after 4 weeks): 0.43 +/− 0.17 scores
Item 6g (speech): mean value (after 4 weeks): 0.46 +/− 0.16 scores
Item 7 (concentration of attention): mean value (after 4 weeks): 1.75 +/− 0.26 scores
Item 8b (low spirits): mean value (after 4 weeks): 0.5 +/− 0.16 scores
Item 9 (delirium): mean value (after 4 weeks): 0.57 +/− 0.29 scores
Item 13 (irritability): mean value (after 4 weeks): 0.21 +/− 0.15 scores
Item 14 (anxiety): mean value (after 4 weeks): 0.29 +/− 0.12 scores
Item 15 (asthenia): mean value (after 4 weeks): 0.18 +/− 0.1 scores
Item 16 (headaches): mean value (after 4 weeks): 0.32 +/− 0.21 scores
Item 17 (dizziness): mean value (after 4 weeks): 0.71 +/− 0.27 scores
Item 18 (tearfulness): mean value (after 4 weeks): 0.07 +/− 0.07 scores
Item 19 (spontaneous activity): mean value (after 4 weeks): 1.29 +/− 0.22 scores
Item 20 (elementary self-service): mean value (after 4 weeks): 0.07 +/− 0.07 scores
mean score of tearfulness (after 8 weeks): 0±0.0
number of patients with signs of aggravation of depression (after 8 weeks): One
tearfulness (after 8 weeks): not a single female patient suffered from tearfulness
Item 1 (orientation in locality, time, immediate surroundings and one's own personality): change during the course of the therapy [2]: +0.18 +/− 0.08 scores
Item 2 (orientation in space): change during the course of the therapy [2]: +0.11 +/− 0.07 scores
Item 3 (memory for the past): change during the course of the therapy [2]: +0.29 +/− 0.1 scores
Item 4 (memory for the present): change during the course of the therapy [2]: _0.29 +/− 0.08 scores
Item 5 (life in the past): change during the course of the therapy [2]: _0.29 +/− 0.1 scores
Item 6a (speech): change during the course of the therapy [2]: +0.14 +/− 0.08 scores
Item 6b (difficulty in finding words, and distortion of words): change during the course of the therapy [2]: −0.04 +/− 0.03 scores
Item 6g (speech): change during the course of the therapy [2]: −0.07 +/− 0.18 scores
Item 7 (concentration of attention): change during the course of the therapy [2]: −0.04 +/− 0.06 scores
Item 8b (low spirits): change during the course of the therapy [2]: +0.43 +/− 0.2 scores
Item 9 (delirium): change during the course of the therapy [2]: +0.25 +/− 0.17 scores
Item 13 (irritability): change during the course of the therapy [2]: +0.36 +/− 0.16 scores
Item 14 (anxiety): change during the course of the therapy [2]: +0.07 +/− 0.09 scores
Item 15 (asthenia): change during the course of the therapy [2]: 0 +/− 0 scores
Item 16 (headaches): change during the course of the therapy [2]: +0.21 +/− 0.1 scores
Item 17 (dizziness): change during the course of the therapy [2]: −0.18 +/− 0.22 scores
Item 18 (tearfulness): change during the course of the therapy [2]: +0.21 +/− 0.15 scores
Item 19 (spontaneous activity): change during the course of the therapy [2]: +0.04 +/− 0.11 scores
Item 20 (elementary self-service): change during the course of the therapy [2]: 0 +/− 0.1 scores
Item 1 (orientation in locality, time, immediate surroundings and one's own personality): mean value (after 8 weeks): 1.57 +/− 0.23 scores
Item 2 (orientation in space): mean value (after 8 weeks): 0.25 +/− 0.13 scores
Item 3 (memory for the past): mean value (after 8 weeks): 1.93 +/− 0.24 scores
Item 4 (memory for the present): mean value (after 8 weeks): 1.86 +/− 0.23 scores
Item 5 (life in the past): mean value (after 8 weeks): 1.57 +/− 0.27 scores
Item 6a (speech): mean value (after 8 weeks): 0.54 +/− 0.21 scores
Item 6b (difficulty in finding words, and distortion of words): mean value (after 8 weeks): 0.39 +/− 0.2 scores
Item 6g (speech): mean value (after 8 weeks): 0.54 +/− 0.19 scores
Item 7 (concentration of attention): mean value (after 8 weeks): 1.75 +/− 0.3 scores
Item 8b (low spirits): mean value (after 8 weeks): 0.46 +/− 0.14 scores
Item 9 (delirium): mean value (after 8 weeks): 0.5 +/− 0.19 scores
Item 13 (irritability): mean value (after 8 weeks): 0.14 +/− 0.09 scores
Item 14 (anxiety): mean value (after 8 weeks): 0.18 +/− 0.1 scores
Item 15 (asthenia): mean value (after 8 weeks): 0.04 +/− 0.03 scores
Item 16 (headaches): mean value (after 8 weeks): 0.64 +/− 0.24 scores
Item 17 (dizziness): mean value (after 8 weeks): 0.68 +/− 0.25 scores
Item 18 (tearfulness): mean value (after 8 weeks): 0.14 +/− 0.14 scores
Item 19 (spontaneous activity): mean value (after 8 weeks): 1.18 +/− 0.27 scores
Item 20 (elementary self-service): mean value (after 8 weeks): 0.14 +/− 0.4 scores
impairments according to the first 5 scale points (cognitive functions) (both after 4-week and 8-week treatment): lack of impairments
20. Elementary self-service, Changes (4 weeks) (change at 4 weeks vs K1, K2, per patient): +1
2. Orientation in space, Changes (4 weeks) [3]: −0.5
5. Life in the past, Changes (4 weeks) [3]: +0.5 (2×) and +1
6c. Naming of objects, Changes (4 weeks) [3]: +0.5 and −1
7. Concentration, Changes (4 weeks) [3]: +0.5 and −0.5
8b. Lower spirits, Changes (4 weeks) [3]: +0.5 (3×) and +2 and +1
9. Delirium, Changes (4 weeks) [3]: +0.5 and +1 and −0.5
13. Irritability, Changes (4 weeks) [3]: +1.5 and +1 (2×) and +0.5
14. Anxiety, Changes (4 weeks) [3]: +0.5 and +1 and −1 (2×)
15. Asthenia, Changes (4 weeks) [3]: −0.5 and −1
16. Headache, Changes (4 weeks) [3]: +1 (2×) and +2 (2×) and −1.5
17. Dizziness, Changes (4 weeks) [3]: +1 and −1 and −2
18. Tearfulness, Changes (4 weeks) [3]: +2 and 0
6d. Performing instructions, Changes (4 weeks) [3]: −1 and +1 (2×)
1. Orientation in locality and time, Changes (4 weeks) (change at 4 weeks vs K1, K2 prior to treatment, + improvement, − deterioration, — no change, per patient, listed as dimebon): +1 and +0.5
1. Orientation in locality and time, Changes (8 weeks) (change at 8 weeks vs K1, K2, + improvement, − deterioration, — no change, per patient, listed as dimebon): +1 and +0.5 (3×)
